Test results from the NIST ThermoML archive (doi:10.1016/j.fluid.2008.06.003).
± gives the expanded uncertainty stated by the source.

Tests used:
[1] = 298.15 K, 101.33 kPa, Liquid
[2] = refractive index (Na D-line) (dimensionless); conditions: 298.15 K; 101.33 kPa; Liquid; Standard Abbe refractometry

mass density [1]	refractive index [2]	SMILES	mass density ([1]; Vibrating tube method)
654.9 ± 1.1 kg/m3	1.37217 ± 0.00037	CCCCCC [hexane]	
679.5 ± 1 kg/m3	1.38517 ± 0.00037	CCCCCCC [heptane]	
785.1 ± 0.5 kg/m3	1.35929 ± 0.00031	CCO [ethanol]	

Further lines, the molecule ahead of its results:

SMILES	mass density [1]	refractive index [2]	mass density ([1]; Vibrating tube method)
CCCCCCCC[n+]1ccn(C)c1.F[P-](F)(F)(F)(F)F [1-octyl-3-methylimidazolium hexafluorophosphate]		1.42302 ± 0.001	1235.7 ± 8.3 kg/m3
CCCCCCn1cc[n+](C)c1.F[P-](F)(F)(F)(F)F [1-hexyl-3-methylimidazolium hexafluorophosphate]		1.41787 ± 0.001	1293.7 ± 9.1 kg/m3
